Assay results taken from patent US7550257B2, “Process for identifying substances which modulate the activity of hyperpolarization-activated cation channels” (Sanofi-Aventis Deutschland GmbH, priority 2000, dated 2009).

Experiments:
[1] = molecular target: T1, muHCN2 (Mus musculus, UniProt O88703); test: FLIPR membrane potential assay (DiBac4(3)) with transfected HCN cells; type: cell-based, murine; details: muHCN2-transfected CHO cells, relative change in fluorescence from the time 60 seconds, mean of 6 wells per concentration, read-out: IC50 of zatebradine (inhibition calculated from relative change in fluorescence)
T1 construct: expressed in transfected cells
T1 sequence (O88703 1-863): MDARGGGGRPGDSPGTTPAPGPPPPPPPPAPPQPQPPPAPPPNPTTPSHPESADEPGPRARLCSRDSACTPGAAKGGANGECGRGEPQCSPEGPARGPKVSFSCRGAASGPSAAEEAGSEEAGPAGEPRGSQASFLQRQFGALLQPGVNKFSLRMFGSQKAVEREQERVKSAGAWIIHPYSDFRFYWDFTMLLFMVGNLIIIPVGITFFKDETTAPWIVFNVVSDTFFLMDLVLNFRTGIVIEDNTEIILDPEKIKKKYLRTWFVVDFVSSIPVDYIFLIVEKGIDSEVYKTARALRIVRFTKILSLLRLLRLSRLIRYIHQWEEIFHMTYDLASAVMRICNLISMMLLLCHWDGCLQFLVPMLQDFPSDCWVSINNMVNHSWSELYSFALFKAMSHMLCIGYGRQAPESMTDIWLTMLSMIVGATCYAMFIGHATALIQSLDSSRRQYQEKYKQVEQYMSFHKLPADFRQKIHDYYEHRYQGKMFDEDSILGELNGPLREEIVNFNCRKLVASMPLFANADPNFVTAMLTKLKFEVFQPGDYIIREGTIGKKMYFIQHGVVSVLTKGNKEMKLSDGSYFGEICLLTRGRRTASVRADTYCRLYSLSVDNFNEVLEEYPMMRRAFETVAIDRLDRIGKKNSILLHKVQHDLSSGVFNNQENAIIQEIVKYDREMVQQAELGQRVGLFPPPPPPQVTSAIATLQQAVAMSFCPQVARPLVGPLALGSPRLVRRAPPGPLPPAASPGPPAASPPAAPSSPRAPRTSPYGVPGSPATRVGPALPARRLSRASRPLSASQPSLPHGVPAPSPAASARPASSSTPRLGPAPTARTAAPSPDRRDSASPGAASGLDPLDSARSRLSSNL
Method: The cells seeded on the microtiter plates are washed in an isoosmolar buffer in which NaCl has been replaced by choline chloride. However, this wash buffer also contains 5 mM KCl, since extracellular K^+ is important for HCN activation (Biel et al. 1999). This wash buffer, which serves to effect hyperpolarization of the HCN cells, also contains 5 μM DiBac4(3) for measuring changes in the membrane potential in the FLIPR. By removing the extracellular Na^+, the cells are hyperpolarized, i.e. the HCN is activated. However, the HCN is not capable of causing depolarization of the cells, since the required concentration gradient of the ions Na^+ or K^+ transported by HCN is missing. […] This is reflected in the fact that the initial fluorescence measured for HCN cells in the FLIPR at 10 μM forskolin is lower than that without forskolin, whereas there is no difference in nontransfected cells.
Since DiBac4(3) fluorescence may be sensitive to temperature variations, the measurement is, after an incubation at 37° C. for 30 minutes, carried out as quickly as possible—cooling of the dye solution may affect the measured results. […]
In the FLIPR, Na^+ is added to the cells so that the activated HCN (after a few seconds, in which there are mixing effects) causes, from about 15 seconds after the addition of Na^+, depolarization of the cells, which becomes visible by an increase in fluorescence. […]

[2] = molecular target: T1, muHCN2; test: Patch-clamp (electrophysiological) examination in the same cells; type: cell-based, murine; details: determined electrophysiologically in the same cells
Source text: Using the patch-clamp method, the cells with detectable mRNA expression were examined electrophysiologically, in the whole-cell configuration, for functional expression of muHCN2. This method is described in detail in Hamill et al (1981), which is incorporated herein by reference. The cells were clamped to a holding potential of −40 mV. Starting with this holding potential, the ion channels were activated by a voltage change to […] for a period of one second. The current amplitude was determined the end of this pulse. Among the transfected HEK cells, some were found having currents of about 1 nA; however, owing to interfering endogenous currents, it was not possible to construct an assay for these cells in the FLIPR.
Electrophysiologically, currents of up to 11 nA were measured. These cells were used for constructing an FLIPR assay for HCN2.
Using the transfected HCN cells, the effect of various concentrations of the substance zatebradine, which is known as an If blocker, were examined. The inhibition by zatebradine was calculated from the relative change in fluorescence from the time 60 seconds. For each concentration of the inhibitor, the mean of in each case 6 wells of the microtiter plate was determined.

For `COc1ccc(CCN(C)CCCN2CCc3cc(OC)c(OC)cc3CC2=O)cc1OC` [zatebradine, 3-[3-[[2-(3,4-dimethoxyphenyl)ethyl]methylamino]propyl]-1,3,4,5-tetrahydro-7,8-dimethoxy-2H-3-benzazepin-2-one], the IC50 [1] was 26 µM and the IC50 [2] was 31 µM.
